Experimental data as given in the NIST ThermoML archive (doi:10.1016/j.fluid.2016.12.025).

Key:
[1] = 298.2 K; 101.33 kPa; Liquid; Vibrating tube method
[2] = refractive index (Na D-line) (dimensionless); conditions: 298.2 K; 101.33 kPa; Liquid; Standard Abbe refractometry
[3] = xn = mol fraction of the nth substance listed; conditions: 298.2 K, 101 kPa, Liquid, Vibrating tube method
[4] = refractive index (Na D-line) (dimensionless); xn = mol fraction of the nth substance listed; conditions: 298.2 K, 101 kPa, Liquid, Standard Abbe refractometry

CCCCO [butan-1-ol]
Conditions	mass density [kg/m3]	refractive index
[1]	806.01	–
[2]	–	1.3973

CC(C)CCO [3-methylbutan-1-ol] + CCCCO
Conditions	mass density, [3] [kg/m3]	refractive index, [4]
x2 = 0.0498	808.87	1.4056
x2 = 0.0999	808.78	1.4053
x2 = 0.1999	808.58	1.4045
x2 = 0.3	808.35	1.4037
x2 = 0.4	808.09	1.4029
x2 = 0.4999	807.81	1.402
x2 = 0.6016	807.5	1.4009
x2 = 0.7015	807.16	1.3998
x2 = 0.7999	806.8	1.3988
x2 = 0.9007	806.41	1.3981
x2 = 0.9506	806.21	1.3978

CC(C)CCO [3-methylbutan-1-ol] + CCCCCCO
Conditions	mass density, [3] [kg/m3]	refractive index, [4]
x1 = 0.0496	815.43	1.4154
x1 = 0.0997	815.12	1.4149
x1 = 0.2005	814.49	1.414
x1 = 0.3003	813.86	1.4131
x1 = 0.3986	813.22	1.4121
x1 = 0.4998	812.55	1.4111
x1 = 0.6001	811.87	1.4101
x1 = 0.7002	811.17	1.4091
x1 = 0.8	810.46	1.4081
x1 = 0.8998	809.73	1.4069
x1 = 0.9504	809.35	1.4064

CCCCOC(C)=O [butyl ethanoate]
Conditions	mass density [kg/m3]	refractive index
[1]	876.26	–
[2]	–	1.3918

CC(C)CCO [3-methylbutan-1-ol]
Conditions	mass density [kg/m3]	refractive index
[1]	808.94	–
[2]	–	1.4061

CCCCCCO [hexan-1-ol]
Conditions	mass density [kg/m3]	refractive index
[1]	815.88	–
[2]	–	1.4161

CC(C)CCO [3-methylbutan-1-ol] + CCCCOC(C)=O
Conditions	mass density, [3] [kg/m3]	refractive index, [4]
x2 = 0.0497	812.53	1.4049
x2 = 0.104	816.52	1.4039
x2 = 0.1998	823.52	1.4021
x2 = 0.2999	830.68	1.4005
x2 = 0.3999	837.66	1.399
x2 = 0.5001	844.46	1.3976
x2 = 0.6006	851.08	1.3962
x2 = 0.7	857.56	1.395
x2 = 0.8003	863.93	1.3939
x2 = 0.9005	870.23	1.3928
x2 = 0.9466	873.08	1.3923

CCCCCCO [hexan-1-ol] + CCCCO
Conditions	mass density, [3] [kg/m3]	refractive index, [4]
x2 = 0.0543	815.53	1.4148
x2 = 0.099	815.22	1.4142
x2 = 0.2042	814.42	1.4126
x2 = 0.2993	813.64	1.4111
x2 = 0.4052	812.7	1.4094
x2 = 0.4994	811.8	1.4078
x2 = 0.5938	810.85	1.406
x2 = 0.7005	809.72	1.4038
x2 = 0.8004	808.58	1.4017
x2 = 0.9003	807.35	1.3997
x2 = 0.9499	806.7	1.3985

CCCCOC(C)=O [butyl ethanoate] + CCCCCCO
Conditions	mass density, [3] [kg/m3]	refractive index, [4]
x1 = 0.0503	818.79	1.4144
x1 = 0.1001	821.75	1.4131
x1 = 0.2012	827.7	1.4104
x1 = 0.3007	833.61	1.4078
x1 = 0.4001	839.54	1.4053
x1 = 0.4999	845.54	1.4029
x1 = 0.6004	851.63	1.4005
x1 = 0.6991	857.64	1.3982
x1 = 0.8003	863.85	1.396
x1 = 0.8953	869.76	1.3939
x1 = 0.9452	872.86	1.3929
